As usually defined, the bioavailability is the share of a dose that reaches the circulation, judged against a reference dose that is usually intravenous. In general, clearance refers to a measure of how efficiently the substance is removed, as volume per time.

Consider 1 molecule from patent US20220402917A1, “COMPOUND AS SMALL MOLECULE INHIBITOR PD-1/PD-L1 AND APPLICATION THEREOF” (MEDSHINE DISCOVERY INC., priority 2019, published 2022).

Series [1] in a line: Pharmacokinetic test in C57BL/6 mice. The class given is in vivo. The following applies: mouse, plasma, male C57BL/6 mice. How it is done:
Experimental Example 4: Pharmacokinetic Test
Experimental purpose: To study the pharmacokinetics of compounds in C57BL/6 mice.
Experimental materials: C57BL/6 mice (male, 8 weeks old, body weight 25 g-30 g)
Experimental operation: The pharmacokinetic characteristics of rodents after intravenous (IV) and oral (PO) administration of compounds were tested in standard protocols. In the experiment, the candidate compounds were formulated into 1 mg/mL clear solutions, and administered to mice via a single intravenous injection and oral administration. The vehicle of intravenous and oral administration was 5% DMSO/5% polyethylene glycol 15-hydroxystearate (Solutol)/90% aqueous solution. Four male C57BL/6 mice were used in the experiment, wherein two mice were administered intravenously at a dose of 1 mg/kg, and the plasma samples were collected 0.0833, 0.25, 0.5, 1, 2, 4, 6, 8 and 24 h after administration, the other two mice were given oral gavage at a dose of 10 mg/kg, and the plasma samples were collected 0.25, 0.5, 1, 2, 4, 6, 8, and 24 h after administration. Whole blood samples within 24 hours were collected, centrifuged at 3000 g for 15 minutes, and the supernatant was separated to obtain plasma samples. Acetonitrile solution containing internal standard was added thereto to precipitate proteins, the mixture was thoroughly mixed and centrifuged to obtain the supernatant for injection. The plasma concentration was quantified by LC-MS/MS analysis method, and the pharmacokinetic parameters were calculated, such as peak concentration (Cmax), clearance (CL), half-life (T1/2), […] (Vdss), area under the drug-time curve (AUC0-last), bioavailability (F) and so on.

The next series deals with PD1/PD-L1 (Homo sapiens, UniProt Q9NZQ7). Description: NFAT activity test (TCR Activitor/PD-L1 CHO cells with PD-1/NFAT Reporter-Jurkat cells). The class given is cell-based. The arrangement: host or cells: TCR Activitor/PD-L1 CHO cells; PD-1/NFAT Reporter-Jurkat cells. The following applies: TCR Activitor/PD-L1 CHO cells + PD-1/NFAT Reporter-Jurkat cells, 5 hours, luciferase. The method, boiled down:
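TCR activator/PD-L1 CHO cells were pretreated 30 min at 37 °C with compound (20 μM to 0.25 nM, 5-fold steps, 2% DMSO). PD-1/NFAT reporter Jurkat cells were then added for 5 h at 37 °C. NFAT-driven luciferase read by Bright-Glo luminescence, normalised to Min/Max, IC50 from 4-parameter fit.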

Chain of PD1/PD-L1 (Q9NZQ7 19-290): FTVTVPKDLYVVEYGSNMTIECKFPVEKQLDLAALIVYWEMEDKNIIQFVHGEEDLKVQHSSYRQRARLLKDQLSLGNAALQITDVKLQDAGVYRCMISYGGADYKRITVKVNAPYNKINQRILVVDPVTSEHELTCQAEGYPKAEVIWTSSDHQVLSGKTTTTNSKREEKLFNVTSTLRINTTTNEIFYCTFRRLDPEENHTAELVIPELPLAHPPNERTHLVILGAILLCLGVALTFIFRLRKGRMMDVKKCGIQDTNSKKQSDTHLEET

With `COc1nc(-c2cccc(-c3cccc(NC(=O)c4cc(C)c5c(n4)CN(CCO)CC5)c3Cl)c2Cl)cnc1CN1CC(O)C1` [Compound 21], the bioavailability in series [1] (PO 10 mg/kg vs IV 1 mg/kg, read-out: Bioavailability F) amounted to 34.9%. For the same molecule, in series [1] (IV 1 mg/kg, PO 10 mg/kg (route not given for Cmax), read-out: Peak concentration Cmax), the Cmax is 117 nM. The clearance in series [1] (IV 1 mg/kg, read-out: Clearance CL) was determined as 98.4 mL/min/kg. Besides, in series [1] (IV 1 mg/kg, read-out: Half-life T1/2 (IV) (converted)), the half-life was 11.6 h. In addition, the Vd in series [1] (IV 1 mg/kg, read-out: Tissue distribution Vdss) worked out at 65.6 L/kg. For the same molecule, in series [1] (PO 10 mg/kg, read-out: Area under the drug-time curve AUC0-last PO), the AUC(0-t) was determined as 0.796 µM·h. Further, the “Maximum effect (induction fold)” value on PD1/PD-L1 was 3.96 induction fold. For the same molecule, the IC50 at PD1/PD-L1 (read-out: IC50, inhibitory activity on PD1/PD-L1 binding (NFAT activity test)) worked out at 0.0139 µM.
